{"source": "patent US20110236504A1", "about": "“VERSATILE DISINFECTANT” (priority 2008, published 2011)", "key": {"S. aureus 209P": {"test_system": "S. aureus 209P", "test": "Metal ion or food preservative added to growth medium, viable count", "format": "cell-based", "conditions": "food preservative in growth medium", "description": "To a standard medium for counting viable bacteria described below, each metal ion with varied concentration was added. […] Then, the number of viable bacteria was counted with time in a common procedure.\nSample bacteria: S. aureus 209P as a representative of Gram-positive bacteria • E. coli 0-157 as a representative of Gram-negative bacteria\nStandard medium for counting viable bacteria: yeast extract 2.5 g, peptone 5 g, glucose 1 g, agar 15 g, pH 7.2"}, "E. coli O-157": {"test_system": "E. coli O-157", "test": "Metal ion or food preservative added to growth medium, viable count", "format": "cell-based", "conditions": "food preservative in growth medium"}, "[1]": {"test_system": "sample bacteria (S. aureus 209P, E. coli O-157)", "test": "Death rate over time, food preservative in purified water pH 3.0"}}}
{"smiles": "O=C([O-])c1ccccc1.[Na+]", "note": "[Sodium benzoate]", "values": [{"measurement": "(a) Antiproliferative activity, concentration", "setting": "S. aureus 209P", "result": "40~300 ppm"}, {"measurement": "(b) Bacteriostatic activity, concentration", "setting": "S. aureus 209P", "result": 250, "unit": "ppm>"}, {"measurement": "(a) Antiproliferative activity, concentration", "setting": "E. coli O-157", "result": "40~300 ppm"}, {"measurement": "(b) Bacteriostatic activity, concentration", "setting": "E. coli O-157", "result": 220, "unit": "ppm>"}, {"measurement": "Death rate", "setting": "[1]; 50 ppm, 5 min", "result": 0}, {"measurement": "Death rate", "setting": "[1]; 50 ppm, 10 min", "result": 0}, {"measurement": "Death rate", "setting": "[1]; 50 ppm, 15 min", "result": 0}, {"measurement": "Death rate", "setting": "[1]; 50 ppm, 30 min", "result": 2}, {"measurement": "Death rate", "setting": "[1]; 50 ppm, 60 min", "result": 5}, {"measurement": "Death rate", "setting": "[1]; 50 ppm, 90 min", "result": 8}, {"measurement": "Death rate", "setting": "[1]; 50 ppm, 120 min", "result": 10}, {"measurement": "Death rate", "setting": "[1]; 200 ppm, 5 min", "result": 0}, {"measurement": "Death rate", "setting": "[1]; 200 ppm, 10 min", "result": 0}, {"measurement": "Death rate", "setting": "[1]; 200 ppm, 15 min", "result": 0}, {"measurement": "Death rate", "setting": "[1]; 200 ppm, 30 min", "result": 2}, {"measurement": "Death rate", "setting": "[1]; 200 ppm, 60 min", "result": 5}, {"measurement": "Death rate", "setting": "[1]; 200 ppm, 90 min", "result": 10}, {"measurement": "Death rate", "setting": "[1]; 200 ppm, 120 min", "result": 12}, {"measurement": "Death rate", "setting": "[1]; 500 ppm, 5 min", "result": 0}, {"measurement": "Death rate", "setting": "[1]; 500 ppm, 10 min", "result": 0}, {"measurement": "Death rate", "setting": "[1]; 500 ppm, 15 min", "result": 1}, {"measurement": "Death rate", "setting": "[1]; 500 ppm, 30 min", "result": 3}, {"measurement": "Death rate", "setting": "[1]; 500 ppm, 60 min", "result": 8}, {"measurement": "Death rate", "setting": "[1]; 500 ppm, 90 min", "result": 12}, {"measurement": "Death rate", "setting": "[1]; 500 ppm, 120 min", "result": 15}]}
